Measurements as given in US20110123600A1, “Use of alkylureas for treating acne” (priority 2005, published 2011).

Legend:
Candida albicans = experiment: Plate count after one hour contact with butylurea solution; assay type: cell-based; settings: 0.4M BU, vs saline control
Method: (§1) Preparation of Sample: 11.6 grams of butyl urea (BU) sample was weighed accurately and dissolved in de-ionized water to 100 ml into 100 ml volumetric flask and mixed to form a 1M (11.6% w/v) solution. Then, 10.0 ml of the 1M solution was mixed with 12.7 ml de-ionized water to form a 0.44M (5.1% w/v) solution. (10.0 ml×1.0M÷22.7 ml=0.44M). Finally, the 0.44M solution was filtered through sterile syringe filters to sterilize.
(§2) Procedure: For the 0.4M butylurea solutions, 4.5 ml was aliquoted into seven (7) 16×150 mm sterile glass test tubes. 4.5 ml sterile physiological saline was also aliquoted into seven (7) 16×150 […] sterile glass test tubes as a control.
(§3) 0.6 ml of culture suspension was inoculated into 0.44M BU and saline control tube for each organism tested and mixed. After one hour contact time a 1.0 ml sample culture mixer was diluted serially into 10^6 into 9.0 ml GBL Stat Broth (TSB; 0.5% Leethen; 4% Tween 20 and 0.1% […]).
(§4) One ml Aerobic Plate Count was performed from each dilution tubes using Trypticase Soy Agar. Plates were incubated at 37±° C. for 48 hours. Except Candida albicans plates were poured with Sabourad Dextrose Agar and incubated at 20 to 25° C. for 5 to 7 days. Colonies were counted using a Quebec Colony Counter.

Streptococcus pyogenes = experiment: Aerobic plate count after one hour contact with butylurea solution; assay type: cell-based; settings: 0.4M BU, vs saline control
Method: as §1, §2, §3, §4

Staphylococcus aureus = experiment: as above; assay type: cell-based; settings: 0.4M BU, vs saline control
Method: as §1, §2, §3, §4

[1] = system: inflamed cystic lesions of acne; experiment: BU in polymer gel applied topically to patients with inflamed cystic lesions of acne; assay type: in vivo; settings: polymer gel releasing 0.4 to 0.5 molar BU, 11 patients
Method: BU in polymer gels: BU incorporated in a polymer gel designed to release the chemical within 30 minutes to 3 hours was administered topically to 11 patients with inflamed cystic lesions of acne. The BU end concentration to be released was between 0.4 to 0.5 molar. Applications to the lesions alone were made 3× daily for 1 week. […] The purulent discharge as well as the inflammatory component of all lesions resolved often within 24 hours.

acne lesions = experiment: BU aqueous solution applied to acne lesions in adolescents; assay type: in vivo; settings: 0.5 molar (5.8% w/v) aqueous solution, twice daily, 5 adolescents
Method: BU in an squeous solution: A 0.5 molar (5.8% w/v) solution of BU was applied twice daily with Q tips to acne lesions in 5 adolescents. BU was applied to cystic purulent lesions, to non cystic lesions with erythema and to early lesions with minimal inflammation. The inflammatory response resolved in all lesions within 24-48 hours, whereas purulent cystic lesions healed without scarring within 3-7 days.

## CCCCNC(N)=O [BU, butyl urea]
Candida albicans
  log Reduction in count: 0.4 log Reduction
Streptococcus pyogenes
  log Reduction in bacterial count: 2 log Reduction
Staphylococcus aureus
  Reduction in bacterial count: Not Active
[1]; topical 3x daily for 1 week
  Local adverse reactions: no local adverse reactions were noted
  Resolution of lesions by the end of the treatment: Most of the lesions resolved
[1]; topical 3x daily, 'often'
  Time to resolution of purulent discharge and inflammatory component of all lesions: ≤ 24 h
Acne lesions
  Time to healing of purulent cystic lesions without scarring: 3 to 7 days
  Time to resolution of inflammatory response in all lesions: 24 to 48 h
